Experimental findings from patent publication US8785380B2 (priority 2011, dated 2014) are described below.

The conditions of series [1]: human, in vivo, po. How it is done:
The enhancement of bioavailability was also tested on human volunteers of age group between 25 to 50, who were healthy and not involved in any medication or health supplementation. The volunteers were not allowed to take turmeric-containing food for two days prior to the test.
6 mL blood of each volunteer was withdrawn at 0, 0.5, 1, 3, 5, 8 and 24 hours respectively and plasma samples were deep-frozen at −80° C. till analysis.

The nature of series [2]: In vitro release of curcumin at pH 6.8 and pH 1.2, 37 °C. The format is physicochemical. Conditions: for Cumulative percent of release of curcumin: 37 °C, after 24 hour. How it is done: Each data point is an average of 3 measurements (n=3) performed under identical conditions. […] Studies were performed in triplicate and mean cumulative percentage of released curcumin was calculated and plotted against time. […] This could be attributed to the very slow initial swelling of polysaccharide chains in water and its further dissolution to allow the leaching of entrapped curcumin into the solution in the dissolution flask.

The conditions of series [3]: male, Wistar albino, rat, in vivo, po, 250 mg/kg. The protocol:
Concentration was determined by HPLC/PDA detection.
[…] blood was collected after each time point, ca. 0, 0.5, 1, 3, 5, 10 and 24 hours respectively into heparinized tubes and centrifuged at 6000×g for 15 minutes. Plasma was decanted and stored at −80° C. until analysis. […] Briefly, 1 mL of plasma was extracted with 3×10 mL of ethyl acetate and is dried over anhydrous sodium sulphate and evaporated to dryness. The residue was then made up to 10 mL with methanol and 20 μL was injected to Shimadzu model LC-20 AT HPLC fitted with a PDA detector model M20A using a reverse phase C18 column (Phenomenex 250×4.6 mm, 5μ) and methanol mobile phase monitored at 420 nm.
Curcuminoid retention time was confirmed by repeated 10 analyses at 50 mg level on same column under identical conditions. […] Analysis was performed by incorporating a Waters Alliance LC fitted with Waters 3100 ESI mass detector.

On to `COc1cc(/C=C/C(=O)CC(=O)/C=C/c2ccc(O)c(OC)c2)ccc1O` [unformulated curcumin, curcumin], for which the “time of maximum absorption of curcuminoids in the plasma” value in series [1] is given as “around 30 min”. For the same compound, the curcumin dissolved entry in series [2] (after 24 hours) is reported as “around 0.4%”. In addition, the “Cumulative percent of release of curcumin” value is listed as 0.06% in series [2] (pH 1.2 0.1M HCl) and 0.08% in series [2] (pH 6.8 phosphate buffer). Also, the “Tmax (time taken to reach maximum concentration in plasma)” value in series [3] is 3 h.
